Data set [1] is described as follows: Fluorescence intensity of the probe and of its fluorescent product at each pH. Type of data set: physicochemical. The settings on record: dependence on pH. Here is the method:
(§1) Cells cultured on glass surface were reacted with gGlu-HMRG, and fluorescence intensity was compared. HeLa cells were inoculated at the same density to chambers of a 4-chamber glass bottom dish. The cells were cultured in DMEM+8% FBS, P.S. under conditions of 37° C. and 5% CO2 for approximately 8 hours. The cells were rinsed three times with PBS(−) adjusted to pH 6.5, 7.3, or 7.8, which was then replaced with each solution supplemented with 2 μM gGlu-HMRG. The cells were stained at 37° C. under 5% CO2 for 20 minutes and observed under a fluorescence microscope under the same conditions as above without the solution replaced. 100 ms exposure, gain 5 Int 5, ND1. Fluorescence intensity from 5 cells in fluorescence images, and background fluorescence intensity were measured with reference to superimposed images with DIC, and the mean and standard deviation were plotted. The fluorescence intensity of gGlu-HMRG and the fluorescence intensity of HMRG (fluorescent substance after reaction with GGT) were measured at each pH.

Another data set deals with HeLa cell spheroid. As to the kind of experiment: Quantification of probe reaction and penetration in HeLa cell spheroid (fluorescence intensity by depth). Type of data set: cell-based, human. As to the method:
(§2) FIG. 4 illustrates a method for analyzing the penetration or reaction of reagents into or with the spheroid. When “Depth” shown in FIGS. 5 to 10 was, for example, 200 μm, the fluorescence intensity of an open region in the illustration was determined from fluorescence intensity observed by fluorescence microscope, wherein the open region has the inside circle at 200 μm inside from the outer periphery and has the outside circle at 100 μm outside from the aforementioned inside circle as shown in the drawing.
HeLa cells (human uterine cervical cancer cell line) or A549 cells (human alveolar basal epithelial adenocarcinoma cell line) were inoculated at 1×10^4 cells to Nunclon Sphera and cultured for 7 to 14 days. Each obtained spheroid was allowed to adhere to a poly-L-lysine-coated glass bottom dish over approximately 24 hours. The medium was replaced with a buffer, and the spheroid was incubated at room temperature for 10 minutes (impregnation, rinse). […] An area (ROI) having the distance from surface shown in FIG. 4 was captured with ImageJ, and increase in the average luminance between the start of measurement and 5 minutes later was analyzed. Fluorescence was also observed by impregnating with saline and addition of gGlu-HMRG dissolved in PBS(−).
(§3) The buffers used and their composition are as follows.
(§4) PBS(−): 140 mM NaCl, 2.7 mM KCl, 10 mM PO4^3− (pH=7.4) PBS(+): PBS(−) described above as well as 0.90 mM CaCl2, 0.33 mM MgCl2 (pH=7.4) PBS−Ca: PBS(−) described above as well as 0.90 mM CaCl2 (pH=7.4) PBS−Mg: PBS(−) described above as well as 0.33 mM MgCl2 (pH=7.4) PBS−EDTA: PBS(−) described above as well as 0.2 mM EDTA (pH=7.4)
(§5) To evaluate the influence of divalent ion (calcium, etc.)-dependent adhesion, fluorescence was observed under the same conditions as in Example 3 except that the following buffers were used.
(§6) (1) No pretreatment (no rinse) and impregnation with a solution of gGlu-HMRG dissolved in PBS(−) (2) Pretreatment by Impregnating with PBS(−) (3) Pretreatment by Impregnating with PBS(+) (4) Pretreatment by impregnating with PBS(−)+0.2 mM EDTA

In another data set the test system is HeLa cells spheroid. Briefly: Time-dependent fluorescence intensity in HeLa cell spheroid (fluorescence microscope). Type of data set: cell-based, human. The settings on record: 1 μM; washed with HBSS and probe in HBSS, compared with PBS(−) 10 min and probe in PBS(−). As to the method: Time-dependent changes in fluorescence intensity are shown for a HeLa cells spheroid which was washed with HBSS and then impregnated with a 1 μM solution of gGlu-HMRG dissolved in HBSS (upper), and for a HeLa cells spheroid which was impregnated with PBS(−) for 10 minutes and then impregnated with a 1 μM solution of gGlu-HMRG dissolved in PBS(−) (lower).
HeLa cells were inoculated at 10^5 cells/well and cultured for 4 to 6 days. The obtained spheroid was put on a glass bottom dish and cultured for about 3 hours. Then, the culture solution was removed, and the spheroid was impregnated with PBS(−) for 10 minutes. A control was washed with HBSS without being impregnated with PBS(−). A 1 μM solution of gGlu-HMRG dissolved in PBS(−) or HBSS was added to the spheroid impregnated with PBS(−) or the control spheroid. Each spheroid immediately (0 minutes), 10 minutes, 20 minutes, 30 minutes, and 60 minutes after addition of the gGlu-HMRG solution was photographed under a fluorescence microscope (Leica DMI 6000 CS, lens: 10×, filter Leica L5, excitation wavelength: 460 to 500 nm, fluorescence wavelength: 512 to 542 nm). Transmitted light images of the spheroid were taken 10 minutes after impregnated with PBS(−).

The subject of another data set is HeLa cells. Briefly: Influence of pH on fluorescence of HeLa cells cultured on glass surface. Type of data set: cell-based, human. As to conditions: 2 μM, 20 minutes, 37° C. As to the method: as §1
The subject of another data set is A549 cell spheroid. As to the kind of experiment: Quantification of probe reaction and penetration in A549 cell spheroid (fluorescence intensity by depth). Type of data set: cell-based, human. Here is the method:
as §2
HeLa cells (human uterine cervical cancer cell line) or A549 cells (human alveolar basal epithelial adenocarcinoma cell line) were inoculated at 1×10^4 cells to Nunclon Sphera and cultured for 7 to 14 days. Each obtained spheroid was allowed to adhere to a poly-L-lysine-coated glass bottom dish over approximately 24 hours. The medium was replaced with a buffer, and the spheroid was incubated at room temperature for 10 minutes (impregnation, rinse). The buffer in the dish was replaced with each buffer containing gGlu-HMRG dissolved to attain a final concentration of 0.1 μM (A549 cells) or 1 μM (HeLa cells), followed by observation under a fluorescence microscope (Leica DMI 6000 CS, lens: 10×, filter Leica L5, ex. 460 to 500 nm, em. 512 to 542 nm). An area (ROI) having the distance from surface shown in FIG. 4 was captured with ImageJ, and increase in the average luminance between the start of measurement and 5 minutes later was analyzed. Fluorescence was also observed by impregnating with saline and addition of gGlu-HMRG dissolved in PBS(−).
as §3, §4, §5, §6
Fluorescence was measured by the same method as in Example 3 except that a 5 μM FeRhoNox-1 probe was used instead of gGlu-HMRG as the fluorescent probe. The cells used were only A549 cells.

Data set [2] has as its system lymph nodes including sentinel lymph node (breast cancer metastasis). Briefly: Fluorescence increase in lymph node clinical specimens resected during breast cancer surgery. As to conditions: 50 μM in PBS. As to the method: After pretreatment of lymph node specimens resected during breast cancer surgery in PBS(−) for 0 minutes, 1 minute, 5 minutes, 10 minutes or an appropriate course of time, increases of fluorescence at 10 minutes after impregnation with a 50 μM gGlu-HMRG solution from that immediately after the impregnation are shown. A specimen diagnosed with cancer metastasis in pathological diagnosis is indicated by a filled circle, and a specimen confirmed to have no cancer metastasis is indicated by an open triangle.
Lymph nodes including sentinel lymph node excised for the purpose of pathological diagnosis during breast cancer surgery were divided and transported from the operating room to an inspection room in a state wrapped in gauze wetted with PBS. A reagent and PBS (140 mM NaCl, 2.7 mM KCl, 10 mM PO4^3−, pH=7.4) at room temperature were used. A PBS impregnated sample was impregnated with a container where PBS was placed, and continuously impregnated for 1 minute, 5 minutes, 10 minutes, or an appropriate course of time from 1 minute to 30 minutes. A PBS non-impregnated sample was stored in state wrapped in gauze wetted with PBS to prevent drying out, instead of being impregnated with PBS, and used in fluorescence measurement. The lymph nodes were carefully taken out with tweezers and put on a Petri dish, and visible images of autofluorescence were taken in a fluorescence measuring machine. 50 μM gGlu-HMRG dissolved in PBS was added to the Petri dish where the lymph nodes were placed, until the lymph nodes completely soaked therein. The fluorescence measurement was continued. The pathological diagnosis of the specimens used in this test was also conducted and checked against final results about whether cancer metastasized to each lymph node.
The fluorescence intensity was indicated by a ratio to the fluorescence intensity of a fluorescence intensity reference plate having a constant fluorescence intensity (measured fluorescence intensity/fluorescence intensity of the fluorescence intensity reference plate).

Setting [3] is: PBS(−) + 0.2 mM EDTA, compared with PBS(−).

On to `Nc1ccc2c(c1)Oc1cc(N)ccc1C21OCc2ccccc21` [HMRG], for which, in data set [1], the “Fluorescence intensity at each pH” value is on record as “decreased with the elevation of pH”.
For the molecule `Nc1ccc2c(c1)Oc1cc(NC(=O)CC[C@H](N)C(=O)O)ccc1C21OCc2ccccc21` (stereo partly shown) [gGlu-HMRG], the “Increase of fluorescence by distance from surface, 5 minutes” value is “further accelerated the increase of fluorescence” in the data set on HeLa cell spheroid (setting [3]); “increase of fluorescence was mora rapid” in the data set on HeLa cell spheroid (PBS(−) impregnation 10 minutes, probe in PBS(−), compared with HBSS without wash); “accelerated the increase of fluorescence at a location distant from surface” in the data set on HeLa cell spheroid (PBS(−) impregnation compared with no impregnation or PBS(+)); “increase of fluorescence was slowed with the increasing distance from surface” with HeLa cell spheroid (probe in HBSS, no buffer wash, 1 μM, 50 μM (FIG. 5 legend)). The “Increase of fluorescence in the spheroid over 0-60 minutes” value in the data set with HeLa cells spheroid was “slower increase of fluorescence in the central portion of the spheroid”. The “Fluorescence intensity of cells and background” value in the data set on HeLa cells (PBS(−) at lower pH (pH 6.5, 7.3, 7.8 tested)) is “lower pH decreased a signal and increased a background”. Besides, the “Fluorescence intensity of cells” value with HeLa cells (PBS(−) at pH of 7.3 or higher) is “increased signal intensity”. Besides, the “Fluorescence intensity at each pH” value in data set [1] is given as “decreased with the elevation of pH”. For the same molecule, the “Increase rate of fluorescence, 5 minutes” value in the data set with A549 cell spheroid (PBS(+) impregnation) is “almost equivalent to that of no impregnation”. The “Increase of fluorescence intensity by depth, 5 minutes” value with A549 cell spheroid (setting [3]) is “larger increase of fluorescence intensity at a site deeper from surface”. In addition, the “Increase rate of fluorescence intensity, 5 minutes” value is recorded as “accelerated the increase rate of fluorescence intensity” with A549 cell spheroid (PBS(−) impregnating treatment 10 min compared with PBS(+), 0.1 μM, 50 μM (FIG. 6 legend)); “less increased fluorescence” in the data set on A549 cell spheroid (PBS−Ca (PBS(−) + 0.90 mM CaCl2) 10 min, as in PBS(+)); “Substantially the same results as those of PBS(−)” with A549 cell spheroid (PBS−Mg (PBS(−) + 0.33 mM MgCl2) 10 min). For the same molecule, the “Increase of fluorescence intensity, 5 minutes” value with A549 cell spheroid (saline (154 mM NaCl) 10 min) was “increase of fluorescence intensity was slow”. The “Increase in fluorescence intensity in the lymph nodes 10 minutes after the start of measurement” value in data set [2] (5 specimens confirmed to have no cancer metastasis in pathological diagnosis) is “little fluorescence increase”; in data set [2] (some specimens confirmed to have cancer, without impregnation with PBS), “only weak fluorescence”; in data set [2] (specimens confirmed to have cancer, impregnated with PBS (regardless of impregnating time)), “strong fluorescence”.
For the molecule FeRhoNox-1, the “Fluorescence intensity distribution by pretreatment solution, 5 minutes” value in the data set with A549 cell spheroid (5 μM probe, PBS−, PBS+, PBS+Ca or PBS+EDTA 10 min) was “same tendency as that obtained using gGlu-HMRG”.

For the origin of these results see patent US20210247277A1, “Pretreatment Method for Fluorescent Image Diagnosis” (Goryo Chemical, Inc., priority 2018, published 2021).
